Consider 17 compounds from patent US20250295798A1, “LIGAND-DRUG CONJUGATE OF EXATECAN ANALOGUE, AND MEDICAL USE THEREOF” (BeiGene Switzerland GmbH, priority 2022, published 2025).

One assay concerns A375. The assay is described as follows: Compounds cellular killing in A375. The settings on record: Homo sapiens, A375, 6 days, Cell Titer-Glo. Type of assay: cell-based, human. The method, boiled down: (§1)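 A375 (1E3/well) or Calu-6 (2E3/well) cells were seeded overnight, then exposed to varying compound concentrations for 6 days at 37 °C, 5% CO2. Viability was read by CellTiter-Glo luminescence.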
Background: ATP-based viability assays read luminescence as a measure of living cells.

For the next assay, the system named is Calu-6. Briefly: Compounds cellular killing in Calu-6. Type of assay: cell-based, human. The settings on record: Homo sapiens, Calu-6, 6 days, Cell Titer-Glo. The method, boiled down: as §1

Structures are written as SMILES. Where a name gives a salt, the structure may show the parent alone.

The EC50 is the concentration giving half of the maximal effect. For orientation: Emax means the size of the effect at its maximum, as opposed to the concentration needed. Take `CC[C@@]1(O)C(=O)OCc2c1cc1n(c2=O)Cc2c-1nc1cc3c(c4c1c2[C@@H](NC(=O)CO)CC4)OC(F)(F)O3` [Example 2-27, N-((1S,10S)-10-ethyl-5,5-difluoro-10-hydroxy-11,14-dioxo-2,3,10,11,14,16-hexahydro-1H,13H-benzo[de][1,3]dioxolo[4,5-g]pyrano[3′,4′:6,7]indolizino[1,2-b]quinolin-1-yl)-2-hydroxyacetamide]: in the assay on A375 (A-375, […]), the midpoint of the response, the EC50, lay at 10.7 nM and the Emax came out at 99.5%. For the same compound, in the assay with Calu-6 (Calu-6, […]), the EC50 amounted to 3.9 nM and the Emax was determined as 99.5%.

On to `CC[C@@]1(O)C(=O)OCc2c1cc1n(c2=O)Cc2c-1nc1cc(OC)cc3c1c2[C@@H](NC(=O)CO)CC3` [Example 2-28, N-((1S,9S)-9-ethyl-9-hydroxy-5-methoxy-10,13-dioxo-2,3,9,10,13,15-hexahydro-1H,12H-benzo[de]pyrano[3′,4′:6,7]indolizino[1,2-b]quinolin-1-yl)-2-hydroxyacetamide], for which, in the assay with A375 (A-375, […]), the EC50 was found to be 13.8 nM and the maximum response (Emax) stood at 98.8%. In the assay on Calu-6 (Calu-6, […]), the EC50 came out at 7.4 nM and the Emax was found to be 98.7%.

Consider `CC[C@@]1(O)C(=O)OCc2c1cc1n(c2=O)Cc2c-1nc1cc(F)c(F)c3c1c2[C@@H](NC(=O)CO)CC3` [Example 2-30, N-((1S,9S)-9-ethyl-4,5-difluoro-9-hydroxy-10,13-dioxo-2,3,9,10,13,15-hexahydro-1H,12H-benzo[de]pyrano[3′,4′:6,7]indolizino[1,2-b]quinolin-1-yl)-2-hydroxyacetamide], for which, in the assay on A375 (A-375, […]), the EC50 is 1.2 nM and the Emax worked out at 98.9%. In the assay on Calu-6 (Calu-6, […]), this compound had an EC50 of 0.7 nM and an Emax of 98.9%.

On to `CC[C@@]1(O)C(=O)OCc2c1cc1n(c2=O)Cc2c-1nc1cc(F)cc3c1c2[C@@H](NC(=O)CO)CC3` [Example 2-31, N-((1S,9S)-9-ethyl-5-fluoro-9-hydroxy-10,13-dioxo-2,3,9,10,13,15-hexahydro-1H,12H-benzo[de]pyrano[3′,4′:6,7]indolizino[1,2-b]quinolin-1-yl)-2-hydroxyacetamide], for which the EC50 in the assay with A375 (A-375, […]) is 6.2 nM; in the assay with Calu-6 (Calu-6, […]), 4.2 nM. The Emax with A375 (A-375, […]) is 98.9%; with Calu-6 (Calu-6, […]), 98.9%.

In the assay with A375 (A-375, […]), `CC[C@@]1(O)C(=O)OCc2c1cc1n(c2=O)Cc2c-1nc1cc(O)cc3c1c2[C@@H](NC(=O)CO)CC3` [Example 2-32, N-((1S,9S)-9-ethyl-5,9-dihydroxy-10,13-dioxo-2,3,9,10,13,15-hexahydro-1H,12H-benzo[de]pyrano[3′,4′:6,7]indolizino[1,2-b]quinolin-1-yl)-2-hydroxyacetamide] yielded an EC50 of 368 nM and an Emax of 93.7%. In the assay on Calu-6 (Calu-6, […]), the response was half-maximal at 81.5 nM (EC50) and the Emax was found to be 93.7%.

In the case of `CC[C@@]1(O)C(=O)OCc2c1cc1n(c2=O)Cc2c-1nc1cc(F)c(Cl)c3c1c2[C@@H](NC(=O)C(C)(C)CO)CC3` [Example 2-34, N-((1S,9S)-4-chloro-9-ethyl-5-fluoro-9-hydroxy-10,13-dioxo-2,3,9,10,13,15-hexahydro-1H,12H-benzo[de]pyrano[3′,4′:6,7]indolizino[1,2-b]quinolin-1-yl)-3-hydroxy-2,2-dimethylpropanamide], the EC50 is 0.8 nM in the assay on A375 (A-375, […]) and 0.5 nM in the assay with Calu-6 (Calu-6, […]). The Emax was found to be 98.9% with A375 (A-375, […]) and 99.4% in the assay on Calu-6 (Calu-6, […]).

Consider `CC[C@@]1(O)C(=O)OCc2c1cc1n(c2=O)Cc2c-1nc1cc3c(c4c1c2[C@@H](NC(=O)C(C)(C)CO)CC4)OCO3` [Example 2-35, N-((1S,10S)-10-ethyl-10-hydroxy-11,14-dioxo-2,3,10,11,14,16-hexahydro-1H,13H-benzo[de][1,3]dioxolo[4,5-g]pyrano[3′,4′:6,7]indolizino[1,2-b]quinolin-1-yl)-3-hydroxy-2,2-dimethylpropanamide], for which, in the assay with A375 (A-375, […]), the EC50 came out at 1.6 nM and the Emax worked out at 100%. In addition, in the assay on Calu-6 (Calu-6, […]), a half-maximal response (EC50) required 0.2 nM and the maximal effect (Emax) came out at 98.6%.

For `CC[C@@]1(O)C(=O)OCc2c1cc1n(c2=O)Cc2c-1nc1cc(F)c(C)c3c1c2[C@@H](NC(=O)[C@@H]1C[C@@H](O)CN1C)CC3` [Example 2-36, (2S,4R)—N-((1S,9S)-9-ethyl-5-fluoro-9-hydroxy-4-methyl-10,13-dioxo-2,3,9,10,13,15-hexahydro-1H,12H-benzo[de]pyrano[3′,4′:6,7]indolizino[1,2-b]quinolin-1-yl)-4-hydroxy-1-methylpyrrolidine-2-carboxamide], in the assay on A375 (A-375, […]), the EC50 was determined as 13.9 nM and the Emax is 97.8%. In addition, in the assay with Calu-6 (Calu-6, […]), the response was half-maximal at 6.2 nM (EC50) and the Emax was 97.7%.

In the assay with A375 (A-375, […]), `CC[C@@]1(O)C(=O)OCc2c1cc1n(c2=O)Cc2c-1nc1cc(F)c(C)c3c1c2[C@@H](NC(=O)[C@@H]1C[C@H](O)CN1C)CC3` [Example 2-37, (2S,4S)—N-((1S,9S)-9-ethyl-5-fluoro-9-hydroxy-4-methyl-10,13-dioxo-2,3,9,10,13,15-hexahydro-1H,12H-benzo[de]pyrano[3′,4′:6,7]indolizino[1,2-b]quinolin-1-yl)-4-hydroxy-1-methylpyrrolidine-2-carboxamide] displayed an EC50 of 3.7 nM and an Emax of 99.9%. Further, in the assay with Calu-6 (Calu-6, […]), the EC50 came to 1.5 nM and the Emax was 98.8%.

In the assay with A375 (A-375, […]), `CC[C@@]1(O)C(=O)OCc2c1cc1n(c2=O)Cc2c-1nc1cc(F)c(C)c3c1c2[C@@H](NC(=O)[C@@H]1C[C@H](O)CN1C(C)=O)CC3` [Example 2-38, (2S,4S)-1-acetyl-N-((1S,9S)-9-ethyl-5-fluoro-9-hydroxy-4-methyl-10,13-dioxo-2,3,9,10,13,15-hexahydro-1H,12H-benzo[de]pyrano[3′,4′:6,7]indolizino[1,2-b]quinolin-1-yl)-4-hydroxypyrrolidine-2-carboxamide] displayed an EC50 of 30.9 nM and an Emax of 98.7%. In the assay with Calu-6 (Calu-6, […]), this compound had a concentration giving a half-maximal response (EC50) of 12.9 nM and an Emax of 96.4%.

In the assay with A375 (A-375, […]), `CC[C@@]1(O)C(=O)OCc2c1cc1n(c2=O)Cc2c-1nc1cc(F)c(C)c3c1c2[C@@H](NC(=O)C(C)(F)CO)CC3` (stereo partly drawn) [Example 2-41, N-((1S,9S)-9-ethyl-5-fluoro-9-hydroxy-4-methyl-10,13-dioxo-2,3,9,10,13,15-hexahydro-1H,12H-benzo[de]pyrano[3′,4′:6,7]indolizino[1,2-b]quinolin-1-yl)-2-fluoro-3-hydroxy-2-methylpropanamide] had an EC50 of 1.5 nM and an Emax of 99.9%. In addition, in the assay on Calu-6 (Calu-6, […]), a half-maximal response (EC50) required 0.6 nM and the Emax came out at 98.2%.

Consider `CC[C@@]1(O)C(=O)OCc2c1cc1n(c2=O)Cc2c-1nc1cc(F)c(C)c3c1c2C(CCCN)CC3` (stereo partly drawn) [Example 2-42, (9S)-1-(3-aminopropyl)-9-ethyl-5-fluoro-9-hydroxy-4-methyl-1,2,3,9,12,15-hexahydro-10H,13H-benzo[de]pyrano[3′,4′:6,7]indolizino[1,2-b]quinoline-10,13-dione formate], for which the EC50 was 20.7 nM with A375 (A-375, […]) and 2.8 nM with Calu-6 (Calu-6, […]). Moreover, the Emax in the assay with A375 (A-375, […]) came out at 99.6%; in the assay on Calu-6 (Calu-6, […]) it was 99.2%.

Turning to `CC[C@@]1(O)C(=O)OCc2c1cc1n(c2=O)Cc2c-1nc1cc(F)cc3c1c2[C@@H](NC(=O)C(C)(C)CO)CC3` [Example 2-43, N-((1S,9S)-9-ethyl-5-fluoro-9-hydroxy-10,13-dioxo-2,3,9,10,13,15-hexahydro-1H,12H-benzo[de]pyrano[3′,4′:6,7]indolizino[1,2-b]quinolin-1-yl)-3-hydroxy-2,2-dimethylpropanamide], the EC50 was 3.6 nM with A375 (A-375, […]) and 1.1 nM in the assay on Calu-6 (Calu-6, […]). Besides, the Emax in the assay with A375 (A-375, […]) was determined as 100%; in the assay with Calu-6 (Calu-6, […]), 99.2%.

As for `CC[C@@]1(O)C(=O)OCc2c1cc1n(c2=O)Cc2c-1nc1cc(F)c(C)c3c1c2C(CCO)CC3` (stereo partly drawn) [Example 2-46, (9S)-9-ethyl-5-fluoro-9-hydroxy-1-(2-hydroxyethyl)-4-methyl-1,2,3,9,12,15-hexahydro-10H,13H-benzo[de]pyrano[3′,4′:6,7]indolizino[1,2-b]quinoline-10,13-dione], the EC50 in the assay on A375 (A-375) turned out to be 0.7 nM; in the assay with Calu-6 it was 0.2 nM. The Emax stood at 100% in the assay with A375 (A-375) and 98.1% with Calu-6 (Calu-6, […]).

`CC[C@@]1(O)C(=O)OCc2c1cc1n(c2=O)Cc2c-1nc1cc(F)c(C)c3c1c2C(C(=O)N1CCC1CO)CC3` (stereo partly drawn) [Example 2-47, (9S)-9-ethyl-5-fluoro-9-hydroxy-1-(2-(hydroxymethyl)azetidine-1-carbonyl)-4-methyl-1,2,3,9,12,15-hexahydro-10H,13H-benzo[de]pyrano[3′,4′:6,7]indolizino[1,2-b]quinoline-10,13-dione]: the EC50 worked out at 6.7 nM with A375 (A-375, […]) and 1.8 nM in the assay on Calu-6 (Calu-6, […]). The Emax with A375 (A-375, […]) is 99.7%; in the assay on Calu-6 (Calu-6, […]), 99.5%.

In the case of `CC[C@@]1(O)C(=O)OCc2c1cc1n(c2=O)Cc2c-1nc1cc(F)c(C)c3c1c2C(CCCCO)CC3` (stereo partly drawn) [Example 2-48, (9S)-9-ethyl-5-fluoro-9-hydroxy-1-(4-hydroxybutyl)-4-methyl-1,2,3,9,12,15-hexahydro-10H,13H-benzo[de]pyrano[3′,4′:6,7]indolizino[1,2-b]quinoline-10,13-dione], the EC50 with A375 (A-375, […]) was 0.4 nM; in the assay with Calu-6 (Calu-6, […]), 0.1 nM. Moreover, the Emax was determined as 99.5% with A375 (A-375, […]) and 98.7% in the assay with Calu-6 (Calu-6, […]).

Take `CC[C@@]1(O)C(=O)OCc2c1cc1n(c2=O)Cc2c-1nc1cc(F)c(C)c3c1c2C(CNCCO)CC3` (stereo partly drawn) [Example 2-53, Nbenzyl (9S)-9-ethyl-5-fluoro-9-hydroxy-1-(((2-hydroxyethyl)amino)methyl)-4-methyl-1,2,3,9,12,15-hexahydro-10H,13H-benzo[de]pyrano[3′,4′:6,7]indolizino[1,2-b]quinoline-10,13-dione]: in the assay on A375 (A-375, […]), the response was half-maximal at 5.1 nM (EC50) and the Emax was 99.9%. In the assay with Calu-6 (Calu-6, […]), this compound came in with an EC50 of 1.6 nM and an Emax of 98.7%.
